Test results published in patent publication US20250057858A1, “COMPOSITIONS AND METHODS FOR TREATING NEUROLOGICAL DISORDERS WITH COMBINATION PRODUCTS” (Neurotech International Ltd, priority 2021, published 2025).

Columns and labels:
COX-2 [1] = test: COX-2 protein, NTI164 plus prednisone (Example 8); format: cell-based; conditions: PDN 5 uM; NTI164 7.5 ug/ml; Interleukin & Interferon activation =1
Protocol: Cells were fixed for 10 min with 4% paraformaldehyde (PFA) in PBS. After 3×5 minutes washing with PBS, cells were incubated with primary antibodies. (anti-COX2) 1:1000 overnight at 4° C., and after 3×5 minutes washing in PBS, cells were then incubated in appropriate fluorescent secondary antibody 1:250 (Invitrogen) for 2 hours at room temperature. After a final wash, as previous, cells nuclei were stained with DAPI in the mounting media. Photomicrographs were taken of the cells in three fields of view per well from duplicate wells and analysed using Fiji for area coverage of each marker.
Treatment groups include: • (1) Control: PBS Buffer • (2) Positive control: Inflammatory stimulation by Interferon gamma and Interleukin-1B activation Prednisone (PDN) concentration 5 uM • (3) Combination therapy: Prednisone (PDN) 5 uM+NTI164 concentration 7.5ug/ml
Result Analysis: Calculated as % reduction in inflammation, PDN versus Combination therapy (prednisone 5 uM+NTI164 concentration 7.5ug/ml). Student's t-test was used for statistical analysis.

COX-2 [2] = test: COX-2 immunohistochemistry in human derived microglial cells (Example 4); format: cell-based; conditions: for COX-2 expression (Avg +/− SEM): 2 μg/ml, N=9
Protocol: Immunohistochemistry (Protein Level) Assay: Cells were fixed for 10 min with 4% paraformaldehyde (PFA) in PBS. After 3×5 minutes washing with PBS, cells were incubated with primary antibodies (anti-COX2) 1:1000 overnight at 4° C., and after 3×5 minutes washing in PBS, cells were then incubated in appropriate fluorescent secondary antibody 1:250 (Invitrogen) for 2 hours at room temperature. After a final wash, as previous, cells nuclei were stained with DAPI in the mounting media. Photomicrographs were taken of the cells in three fields of view per well from duplicate wells and analysed using Fiji for area coverage of each marker.
(§1) 500 mg of dried plant material of NTI164 is suspended in 20 ml of absolute ethanol (using 50 ml blue top falcon tubes appropriate for centrifugation) and stirred/shaken vigorously for 60 seconds. The tubes are then placed in a sonication bath for 10 mins at 35-40 C. Upon completion of the sonication samples are then placed in a tray shaker (200 rpm) for 30 minutes at room temperature. Once completed the samples are then centrifuged at 4400 rpm for 5 minutes. The supernatant is collected for testing and development.
Units used to describe treatments for test products and concentrations for NTI164. • a. 1/1000 dilution of extract—10 µL (stock material is NTI164—10 µL, which equates to 2 μg/ml of CBDA) • b. 1/3000 dilution of extract—3 µL (stock material is NTI164—3 µL, which equates to […] of CBDA) • c. 1/10000 dilution of extract—1 µL (stock material is NTI164—1 µL, which equates to 0.1 μg/ml of CBDA)
For the CBD sample, a pure standard (in powder form) was used. CBD 98% isolate was purchased as a reference standard from LGC Standards (London UK) (CAS No. 13956-29-1). The CBD standard reference was prepared at concentration of 1 mg/ml (in acetonitrile). CBD dilutions were made in acetonitrile as follows: 2 μg/ml; 6 μg/ml; and 0.1 μg/ml.
The final concentration of NTI164 (CBDA equivalent) and CBD that was used in these studies was 2 μg/ml.

TNF-alpha = test: Multiplex cytokine assay, TNF-alpha, microglial cells (Example 4); format: cell-based, human; conditions: 2 μg/ml
Protocol: (§2) Multiplex Cytokine/Chemokine Assay: Microglia media harvested following treatment initiation was centrifuged briefly to remove particulates (300 g for 10 min). Cytokine and chemokine levels in the microglial media were measured using a Bio-Plex 200 with a 96-well magnetic plate assay according to the manufacturer's instructions (Bio-Rad). Cytokines and chemokines measured included IL-1α, IL-1β, IL-2, IL-6, IL-10, IL-12 (p70), IL-13, G-CSF, GM-CSF, IFNγ, TNFα, CXCL1 (KC), CCL2 (MCP-1), and CCL5 (RANTES). All samples were run in duplicate and data were analyzed with the Bio-Plex Manager software.
as §1
(§3) Units used to describe treatments for test products and concentrations for NTI164. • a. 1/1000 dilution of extract—10 µL (stock material is NTI164—10 µL, which equates to 2 μg/ml of CBDA) • b. […]

[3] = system: cells in an excitotoxic cell injury paradigm; test: Cell death in an excitotoxic cell injury paradigm; format: cell-based
Protocol: Neuronal viability was quantified using MTT [3-(4,5-dimethylthiazol-2-yl-)-2,5-diphenyl-2H-tetrazolium bromide; Sigma]. NTI164 treated celled were able to increase the number of “healthy” cells under basal conditions following short term glutamate exposure. Cellular excitotoxicity was achieved via glutamate activation (3 mM). NTI164 was able to stimulate cell growth after short term glutamate induced “insult”.

IL-12 = test: Multiplex cytokine assay, IL-12, microglial cells (Example 4); format: cell-based, human; conditions: 2 μg/ml
Protocol: as §2, §1, §3

TNFα = TNFα in microglial culture media, NTI164 plus psylocibin (Example 9); format: cell-based; conditions: PBS Control 1.00, Positive activation I&I 10.67
Protocol: Microglia media harvested following treatment initiation was centrifuged briefly to remove particulates (300 g for 10 min). The level of TNFα in the microglial culture media was measured using a Bio-Plex 200 with a 96-well magnetic plate assay according to the manufacturer's instructions (Bio-Rad). The samples were run in duplicate that were averaged for analysis. At least three samples per group were run.

[4] = exposure 1 hour after inflammatory insult
[5] = exposure 1 hour prior to inflammatory insult
[6] = Interleukin and Interferon activation

C[C@]12C=CC(=O)C=C1CC[C@@H]1[C@@H]2C(=O)C[C@@]2(C)[C@H]1CC[C@]2(O)C(=O)CO [PDN, Prednisone]
COX-2 Protein (COX-2 [1]): 0.888

C=C(C)[C@@H]1CCC(C)=C[C@H]1c1c(O)cc(CCCCC)cc1O [CBD, cannabidiol]
P, positive control vs treatment (COX-2) (COX-2 [2]; [4]): P = 0.0566
COX-2 expression (Avg +/− SEM) (COX-2 [2]; [4]): 76.32 +/− 7.95 (SEM)
P, positive control vs treatment (COX-2) (COX-2 [2]; [5]): P = 0.3237
COX-2 expression (Avg +/− SEM) (COX-2 [2]; [5]): 84.82 +/− 7.65 (SEM)
Statistical Significance Reduction Compared to Control Alone (P), TNF-alpha (TNF-alpha): = 0.0005
TNF-alpha, Average (TNF-alpha; [6]): 71.13
cell death / toxicity [3]: toxic
Statistical Significance Reduction Compared to Control Alone (P), IL-12 (IL-12): = 0.008
IL-12, Average (IL-12; [6]): 84.40

CN(C)CCc1c[nH]c2cccc(OP(=O)(O)O)c12 [SubP (Psylocibin), Psylocibin]
TNF-ALPHA ASSESSMENTS RESULTS (TNFα; 1 ug/ml): 4.87
TNF-ALPHA ASSESSMENTS RESULTS (TNFα; 5 ug/ml): 9.17
